# Laboratory results: US9302989B2 (priority 2010, dated 2016)
# Biological target: NAMPT (Homo sapiens (Human), UniProt P43490)
# Test: biochemical
# Experimental: Determination of the utility of compounds having Formula (I) as binders to and inhibitors of NAMPT was performed using a Time-Resolved Fluorescence Resonance Energy Transfer (TR-FRET) binding assay.
# Time-Resolved Fluorescence Resonance Energy Transfer (TR-FRET) Binding Assay of NAMPT
# Plates were covered, and reactions were carried out for 2-3 hours. Plates were read with Envision (Laser Lantha low volume protocol) after 2 to 3 hours.
# Sequence of NAMPT (P43490 whole entry, looked up): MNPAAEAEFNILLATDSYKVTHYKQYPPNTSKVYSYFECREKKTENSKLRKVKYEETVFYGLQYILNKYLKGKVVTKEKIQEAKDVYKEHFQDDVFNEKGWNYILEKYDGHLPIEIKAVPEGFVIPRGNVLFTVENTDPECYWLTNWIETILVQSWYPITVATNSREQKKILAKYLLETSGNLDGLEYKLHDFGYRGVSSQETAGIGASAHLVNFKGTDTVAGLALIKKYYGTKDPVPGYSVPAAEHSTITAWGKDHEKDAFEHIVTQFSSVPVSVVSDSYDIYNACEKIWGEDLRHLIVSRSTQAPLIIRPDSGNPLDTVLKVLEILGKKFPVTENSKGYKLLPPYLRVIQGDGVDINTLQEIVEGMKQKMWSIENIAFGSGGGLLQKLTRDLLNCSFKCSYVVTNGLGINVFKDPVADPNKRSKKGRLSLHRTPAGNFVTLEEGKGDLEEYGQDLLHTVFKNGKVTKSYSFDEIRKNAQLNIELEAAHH
smiles,measurement,value
"CC(C)CCC(=O)Nc1ccc(NC(=O)N2Cc3ccccc3C2)cc1 [Example 294, N-{4-[(4-methylpentanoyl)amino]phenyl}-1,3-dihydro-2H-isoindole-2-carboxamide]",IC50,8.14 nM
